Assays:
[1] = Prodrug stability in human liver S9; format: in vitro ADME; settings: Human Liver S9 (0.5 mg/mL), 2.0 μM, NADPH, 37° C.
Method: (§1) The stabilities of prodrugs were evaluated in one or more in vitro systems using a variety of tissue preparations following methods known in the art. The chemical stability of prodrugs in aqueous buffers at pH's of 2.0, 7.4 and 8.0 were also measured. […] Each preparation was incubated with test compound at 37° C. for one hour. Aliquots (50 μL) were removed at 0, 30, and 60 min and quenched with 0.1% trifluoroacetic acid in acetonitrile. Samples were then centrifuged and analyzed by LC/MS/MS (see Example 86 below for method details).

pancreatin = assay: Pancreatin stability; format: in vitro ADME, porcine; settings: 1% (w/v) pancreatin, 5 μM, pH 7.5, 37° C.
Method: Pancreatin Stability: Stability studies were conducted by incubating prodrug (5 μM) with 1% (w/v) pancreatin (Sigma, P-1625, from porcine pancreas) in 0.025 M Tris buffer containing 0.5 M NaCl (pH 7.5) at 37° C. for 60 min. The reaction was stopped by addition of 2 volumes of methanol. After centrifugation at 14,000 rpm for […], the supernatant was removed and analyzed by LC/MS/MS.

Caco-2 cells = assay: Caco-2 cellular permeability of prodrugs; format: in vitro ADME; settings: Caco-2 monolayer, ratio of Papp values
Method: For example, cellular permeability may be evaluated by examining the flux of a prodrug across a cultured polarized cell monolayer (e.g., Caco-2 cells). Caco-2 cells obtained from continuous culture (passage less than 28) were seeded at high density onto Transwell polycarbonate filters. Cells were maintained with DMEM/10% fetal calf serum+0.1 mM nonessential amino acids+2 mM L-Gln, 5% CO2/95% O2, 37° C. until the day of the experiment. Permeability studies were conducted at pH 6.5 apically (in 50 mM MES buffer containing 1 mM CaCl2, 1 mM MgCl2, 150 mM NaCl, 3 mM KCl, 1 mM NaH2PO4, 5 mM glucose) and pH 7.4 basolaterally (in Hanks' balanced salt solution containing 10 mM HEPES) in the presence of efflux pump inhibitors (250 μM MK-571, 250 μM Verapamil, 1 mM Ofloxacin). Inserts were placed in 12 or 24 well plates containing buffer and incubated for 30 min at 37 C.°. Prodrug (200 μM) was added to the apical or basolateral compartment (donor) and concentrations of prodrug and/or released parent drug in the opposite compartment (receiver) were determined at intervals over 1 hour using LC/MS/MS. Values of apparent permeability (Papp) were calculated using the equation: Papp=Vr(dC/dt)//(ACo)
Here Vr is the volume of the receiver compartment in mL; dC/dt is the total flux of prodrug and parent drug (μM/s), determined from the slope of the plot of concentration in the receiver compartment versus time; Co is the initial concentration of prodrug in μM; A is the surface area of the membrane in cm^2.

[2] = Prodrug stability in rat plasma in vitro; format: in vitro ADME; settings: 2.0 μM, 37° C.
Method: as §1

[3] = Caco-2 homogenate S9 stability; format: in vitro ADME; settings: Caco-2 S9 (0.5 mg protein per mL), 5 μM, 37° C.
Method: Caco-2 Homogenate S9 Stability: Caco-2 cells were grown for 21 days prior to harvesting. Culture medium was removed and cell monolayers were rinsed and scraped off into ice-cold 10 mM sodium phosphate/0.15 M potassium chloride, pH 7.4. Cells were lysed by sonication at 4° C. using a probe sonicator. Lysed cells were then transferred into 1.5 mL centrifuge vials and centrifuged at 9000 g for 20 min at 4° C. The resulting supernatant (Caco-2 cell homogenate S9 fraction) was aliquoted into 0.5 mL vials and stored at −80° C. until used.
For stability studies, prodrug (5 μM) was incubated in Caco-2 homogenate S9 fraction (0.5 mg protein per mL) for 60 min at 37° C. Concentrations of intact prodrug and released baclofen were determined at zero time and 60 minutes using LC/MS/MS.

[4] = Prodrug stability in human plasma in vitro; format: in vitro ADME; settings: 2.0 μM, 37° C.
Method: as §1

[5] = Chemical stability of prodrugs in aqueous buffers; format: physicochemical
Method: as §1

[6] = Prodrug stability in rat liver S9; format: in vitro ADME; settings: Rat Liver S9 (0.5 mg/mL), 2.0 μM, NADPH, 37° C.
Method: as §1

| SMILES | % of Baclofen Released after 60 min [1] [%] | % of Prodrug Remaining after 60 min [1] [%] | % of Prodrug Remaining after 60 min (pancreatin) [%] | Ratio A-B/B-A (Caco-2 cells) | % of Baclofen Released after 60 min [2] [%] | % of Prodrug Remaining after 60 min [2] [%] | % of Baclofen Released after 60 min [3] [%] | % of Prodrug Remaining after 60 min [3] [%] | % of Baclofen Released after 60 min [4] [%] | % of Prodrug Remaining after 60 min [4] [%] | % of Baclofen Released after 60 min ([5]; aqueous buffer pH 2.0, 37° C.) [%] | % of Prodrug Remaining after 60 min ([5]; aqueous buffer pH 2.0, 37° C.) [%] | % of Baclofen Released after 60 min ([5]; aqueous buffer pH 7.4, 37° C.) [%] | % of Prodrug Remaining after 60 min ([5]; aqueous buffer pH 7.4, 37° C.) [%] | % of Baclofen Released after 60 min ([5]; aqueous buffer pH 8.0, 37° C.) [%] | % of Prodrug Remaining after 60 min ([5]; aqueous buffer pH 8.0, 37° C.) [%] | % of Baclofen Released after 60 min [6] [%] | % of Prodrug Remaining after 60 min [6] [%] | % of Baclofen Released after 60 min (pancreatin) [%] |
| --- | --- | --- | --- | --- | --- | --- | --- | --- | --- | --- | --- | --- | --- | --- | --- | --- | --- | --- | --- |
| CCCC(=O)OCOC(=O)NC[C@H](CC(=O)[O-])c1ccc(Cl)cc1.[Na+] [(16), Sodium 4-[(Butanoyloxymethoxy)carbonylamino]-(3R)-(4-chlorophenyl)-butanoate] | 100 | 1 | 1 | 5.1 | 40 | 54 | 100 | 1 | 20 | 62 | 0 | 100 | 0 | 100 | 0 | 100 | 100 | 1 | – |
| CC(C)C(=O)OCOC(=O)NC[C@H](CC(=O)[O-])c1ccc(Cl)cc1.[Na+] [(18), Sodium 4-[(Isobutanoyloxymethoxy)carbonylamino]-(3R)-(4-chlorophenyl)-butanoate] | 100 | 2 | 2 | 1.1 | 60 | 39 | 100 | 1 | 27 | 61 | 0 | 105 | 0 | 95 | 0 | 102 | 100 | 1 | – |
| CC(C)(C)C(=O)OCOC(=O)NC[C@H](CC(=O)[O-])c1ccc(Cl)cc1.[Na+] [(20), Sodium 4-[(Pivaloyloxymethoxy)carbonylamino]-(3R)-(4-chlorophenyl)-butanoate] | – | 1 | – | – | 8 | – | 100 | 1 | 9 | – | 0 | 100 | 0 | 100 | 0 | – | – | – | – |
| CC(C)C(=O)OC(OC(=O)NC[C@H](CC(=O)[O-])c1ccc(Cl)cc1)C(C)C.[Na+] (stereo partly drawn) [(25), Sodium 4-[(1-Isobutanoyloxyisobutoxy)carbonylamino]-(3R)-(4-chlorophenyl)-butanoate] | – | 4 | – | – | – | 5 | – | 2 | 4 | – | 0 | – | 0 | – | 0 | 100 | – | 1 | – |
| CC(C)C(=O)O[C@H](C)OC(=O)NC[C@H](CC(=O)[O-])c1ccc(Cl)cc1.[Na+] [(34), Sodium 4-{[(1S)-Isobutanoyloxyethoxy]carbonylamino}-(3R)-(4-chlorophenyl)-butanoate] | 100 | 3 | – | – | – | – | 100 | 2 | 2 | – | 0 | – | 0 | 100 | 0 | 100 | 100 | 1 | 18 |
| CC(C)CC(=O)OCOC(=O)NC[C@H](CC(=O)[O-])c1ccc(Cl)cc1.[Na+] [(59), Sodium 4-[(3-Methylbutanoyloxymethoxy)carbonylamino]-(3R)-(4-chlorophenyl)-butanoate] | – | 1 | – | – | – | 2 | – | 3 | – | – | 0 | – | 1 | 103 | 2 | – | 85 | 2 | – |
| O=C([O-])C[C@@H](CNC(=O)OCOC(=O)CCc1ccccc1)c1ccc(Cl)cc1.[Na+] [(62), Sodium 4-[(3-Phenylpropionovloxymethoxy)carbonylamino]-(3R)-(4-chlorophenyl)-butanoate] | – | 0 | 1 | – | – | 5 | – | 1 | 2 | – | 0 | – | 2 | – | 8 | – | – | 2 | – |
| CCCC(=O)OC(OC(=O)NC[C@H](CC(=O)[O-])c1ccc(Cl)cc1)C1CCCCC1.[Na+] (stereo partly drawn) [(85), Sodium 4-[(1-Butanoyloxy-1-cyclohexylmethoxy)carbonylamino]-(3R)-(4-chlorophenyl)-butanoate] | – | 2 | – | – | – | 82 | 82 | 4 | 4 | – | 0 | – | 0 | – | 0 | – | – | 2 | – |
| CCCC(=O)O[C@H](CCC)OC(=O)NC[C@H](CC(=O)[O-])c1ccc(Cl)cc1.[Na+] [(86), Sodium 4-{[(1S)-Butanoyloxybutoxy]carbonylamino}-(3R)-(4-chlorophenyl)-butanoate] | – | 2 | 4 | – | – | 1 | – | 2 | – | – | 0 | – | 1 | – | 2 | – | – | 2 | – |
| CCCC(=O)O[C@H](OC(=O)NC[C@H](CC(=O)[O-])c1ccc(Cl)cc1)C(C)C.[Na+] [(90), Sodium 4-{[(1R)-Butanoyloxyisobutoxy]carbonylamino}-(3R)-(4-chlorophenyl)-butanoate] | – | 1 | 9 | – | – | 5 | – | 5 | 2 | – | 0 | – | 0 | – | 1 | 93 | – | 3 | – |
| CC(C)C(=O)O[C@H](OC(=O)NC[C@H](CC(=O)[O-])c1ccc(Cl)cc1)C(C)C.[Na+] [(100), Sodium 4-{[(1R)-Isobutanoyloxyisobutoxy]carbonylamino}-(3R)-(4-chlorophenyl)-butanoate] | – | 1 | – | – | – | 9 | – | 7 | 3 | – | 0 | – | 0 | – | 0 | – | – | 3 | – |

Reference: patent US10385014B2, “Acyloxyalkyl carbamate prodrugs, methods of synthesis and use” (ARBOR PHARMACEUTICALS, LLC, priority 2003, dated 2019)
